# Laboratory results reported in patent publication US20230364070A1, “PYRROLO[3,2-C]PYRIDIN-4-ONE DERIVATIVES USEFUL IN THE TREATMENT OF CANCER” (Scorpion Therapeutics, Inc., priority 2020, published 2023).
# What was measured:
# Assay type in all cases: cell-based
# [1] = target: T1, Ba/F3 cells with EGFR WT (Homo sapiens, UniProt P00533); assay: EGFR activity: Ba/F3 cell viability (CellTiter-Glo, 72 h), EGFR WT; details: read-out: BaF3 WT IC50
# T1 construct: expressed in transfected cells; host or cells: Ba/F3 (murine pro-B cells), retroviral transduction, puromycin selection, maintained with EGF
# T1 sequence (P00533 25-1210): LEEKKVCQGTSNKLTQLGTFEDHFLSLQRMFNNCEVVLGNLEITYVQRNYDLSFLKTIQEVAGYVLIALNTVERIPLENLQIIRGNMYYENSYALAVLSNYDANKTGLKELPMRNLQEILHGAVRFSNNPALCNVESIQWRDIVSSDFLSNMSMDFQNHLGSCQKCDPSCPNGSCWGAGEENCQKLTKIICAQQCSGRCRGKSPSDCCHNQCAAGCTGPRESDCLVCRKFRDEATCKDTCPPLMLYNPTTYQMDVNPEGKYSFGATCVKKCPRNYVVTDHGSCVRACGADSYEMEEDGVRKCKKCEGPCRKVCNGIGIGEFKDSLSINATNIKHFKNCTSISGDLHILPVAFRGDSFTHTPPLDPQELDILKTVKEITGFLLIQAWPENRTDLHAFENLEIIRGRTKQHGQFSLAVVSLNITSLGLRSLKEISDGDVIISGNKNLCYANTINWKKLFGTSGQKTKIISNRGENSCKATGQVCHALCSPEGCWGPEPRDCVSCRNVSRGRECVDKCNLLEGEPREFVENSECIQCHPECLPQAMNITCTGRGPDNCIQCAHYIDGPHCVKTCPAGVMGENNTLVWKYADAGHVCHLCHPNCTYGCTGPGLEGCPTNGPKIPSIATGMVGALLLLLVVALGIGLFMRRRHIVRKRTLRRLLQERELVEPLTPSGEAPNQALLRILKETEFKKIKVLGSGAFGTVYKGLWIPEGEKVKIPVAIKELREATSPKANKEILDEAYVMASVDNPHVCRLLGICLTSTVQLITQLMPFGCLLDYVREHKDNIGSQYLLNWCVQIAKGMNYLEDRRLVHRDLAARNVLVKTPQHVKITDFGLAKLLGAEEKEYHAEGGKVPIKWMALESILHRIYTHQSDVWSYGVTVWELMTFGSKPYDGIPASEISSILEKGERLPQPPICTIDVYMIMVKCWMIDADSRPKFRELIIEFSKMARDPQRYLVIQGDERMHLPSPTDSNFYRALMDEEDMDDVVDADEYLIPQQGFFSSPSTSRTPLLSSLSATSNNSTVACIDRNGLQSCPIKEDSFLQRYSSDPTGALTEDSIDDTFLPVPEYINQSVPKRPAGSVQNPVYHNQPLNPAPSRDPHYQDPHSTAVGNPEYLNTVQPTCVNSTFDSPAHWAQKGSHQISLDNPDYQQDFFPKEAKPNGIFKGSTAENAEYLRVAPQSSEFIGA
# [2] = target: T2, Ba/F3 cells with EGFR exon 20 NPG Ins D770_N771 (Homo sapiens, UniProt P00533, INS770NPG); assay: EGFR activity: Ba/F3 cell viability (CellTiter-Glo, 72 h), EGFR exon 20 NPG insertion; details: EGFR exon 20 NPG Ins D770_N771, cell viability, read-out: BaF3 NPG IC50
# T2 construct: expressed in transfected cells; host or cells: Ba/F3 (murine pro-B cells), retroviral transduction, puromycin selection, IL3-independent pool
# T2 sequence (P00533 with tags, fused parts or gaps INS770NPG): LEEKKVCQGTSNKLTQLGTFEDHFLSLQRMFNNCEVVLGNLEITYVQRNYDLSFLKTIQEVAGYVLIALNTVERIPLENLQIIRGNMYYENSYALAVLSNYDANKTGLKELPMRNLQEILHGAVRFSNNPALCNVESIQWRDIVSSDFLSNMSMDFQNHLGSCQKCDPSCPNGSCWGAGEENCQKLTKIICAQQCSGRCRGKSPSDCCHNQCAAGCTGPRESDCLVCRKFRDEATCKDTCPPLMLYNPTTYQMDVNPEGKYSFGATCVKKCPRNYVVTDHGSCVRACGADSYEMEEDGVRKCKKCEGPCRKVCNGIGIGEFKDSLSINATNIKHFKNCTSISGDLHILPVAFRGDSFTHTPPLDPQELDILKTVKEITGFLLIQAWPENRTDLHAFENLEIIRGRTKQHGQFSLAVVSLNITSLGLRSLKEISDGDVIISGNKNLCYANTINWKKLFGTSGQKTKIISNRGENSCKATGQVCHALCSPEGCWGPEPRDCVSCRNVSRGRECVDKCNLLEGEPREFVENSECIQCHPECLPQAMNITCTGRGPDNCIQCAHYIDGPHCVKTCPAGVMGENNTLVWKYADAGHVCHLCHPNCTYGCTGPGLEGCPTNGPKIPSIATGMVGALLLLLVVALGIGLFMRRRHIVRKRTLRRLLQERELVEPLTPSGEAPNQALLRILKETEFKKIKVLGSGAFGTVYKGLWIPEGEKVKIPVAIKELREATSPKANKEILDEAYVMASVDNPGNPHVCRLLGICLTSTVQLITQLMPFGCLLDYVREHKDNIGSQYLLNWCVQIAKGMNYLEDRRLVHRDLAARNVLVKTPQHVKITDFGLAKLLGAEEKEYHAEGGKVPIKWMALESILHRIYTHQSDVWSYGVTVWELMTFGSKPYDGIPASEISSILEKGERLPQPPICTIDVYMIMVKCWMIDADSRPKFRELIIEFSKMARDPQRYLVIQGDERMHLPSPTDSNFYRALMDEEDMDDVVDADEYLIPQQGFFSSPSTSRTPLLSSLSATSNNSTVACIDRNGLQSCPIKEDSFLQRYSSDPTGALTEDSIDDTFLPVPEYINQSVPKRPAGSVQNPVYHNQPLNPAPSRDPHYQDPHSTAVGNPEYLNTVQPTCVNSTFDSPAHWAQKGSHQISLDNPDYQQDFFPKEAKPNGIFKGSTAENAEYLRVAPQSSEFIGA
# [3] = target: T3, Ba/F3 cells with EGFR exon 20 ASV Ins V769_D770 (Homo sapiens, UniProt P00533, INS769ASV); assay: EGFR activity: Ba/F3 cell viability (CellTiter-Glo, 72 h), EGFR exon 20 ASV insertion; details: EGFR exon 20 ASV Ins V769_D770, cell viability, read-out: BaF3 ASV IC50
# T3 construct: expressed in transfected cells; host or cells: Ba/F3 (murine pro-B cells), retroviral transduction, puromycin selection, IL3-independent pool
# T3 sequence (P00533 with tags, fused parts or gaps INS769ASV): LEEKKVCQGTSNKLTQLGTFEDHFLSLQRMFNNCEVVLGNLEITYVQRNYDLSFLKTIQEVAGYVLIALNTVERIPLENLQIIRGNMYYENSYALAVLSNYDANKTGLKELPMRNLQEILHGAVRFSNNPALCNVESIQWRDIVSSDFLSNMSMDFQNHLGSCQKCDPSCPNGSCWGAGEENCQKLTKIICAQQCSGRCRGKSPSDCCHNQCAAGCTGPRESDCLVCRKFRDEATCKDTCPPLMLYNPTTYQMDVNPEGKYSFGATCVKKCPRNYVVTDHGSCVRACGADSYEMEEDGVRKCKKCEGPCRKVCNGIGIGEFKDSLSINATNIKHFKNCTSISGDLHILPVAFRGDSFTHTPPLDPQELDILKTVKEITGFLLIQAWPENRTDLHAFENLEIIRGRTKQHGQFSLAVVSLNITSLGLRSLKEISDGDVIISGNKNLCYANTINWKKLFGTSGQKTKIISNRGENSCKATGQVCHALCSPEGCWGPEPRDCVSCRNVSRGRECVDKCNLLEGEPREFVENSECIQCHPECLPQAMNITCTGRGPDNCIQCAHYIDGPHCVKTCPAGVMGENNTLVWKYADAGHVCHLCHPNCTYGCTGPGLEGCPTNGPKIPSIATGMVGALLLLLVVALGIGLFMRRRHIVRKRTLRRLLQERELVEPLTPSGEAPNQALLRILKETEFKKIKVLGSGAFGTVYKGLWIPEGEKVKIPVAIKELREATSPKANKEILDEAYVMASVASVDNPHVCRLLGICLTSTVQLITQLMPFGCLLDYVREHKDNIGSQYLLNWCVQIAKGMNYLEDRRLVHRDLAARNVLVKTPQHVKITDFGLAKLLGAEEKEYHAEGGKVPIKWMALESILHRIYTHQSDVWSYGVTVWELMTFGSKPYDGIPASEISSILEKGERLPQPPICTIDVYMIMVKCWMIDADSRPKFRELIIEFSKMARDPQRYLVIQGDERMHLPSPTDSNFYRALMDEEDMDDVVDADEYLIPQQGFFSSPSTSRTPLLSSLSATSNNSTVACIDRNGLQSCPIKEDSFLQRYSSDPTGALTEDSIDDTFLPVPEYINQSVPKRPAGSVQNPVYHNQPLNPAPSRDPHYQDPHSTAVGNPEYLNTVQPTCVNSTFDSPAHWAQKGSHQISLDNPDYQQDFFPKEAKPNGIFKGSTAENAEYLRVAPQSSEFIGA
SMILES,IC50 [1],IC50 [2],IC50 [3]
"COc1c(F)cccc1Nc1c(-c2ccncc2OCCOC2CC2)[nH]c2c1C(=O)NCC2 [Compound 135, 2-(3-(2-cyclopropoxyethoxy)pyridin-4-yl)-3-((3-fluoro-2-methoxyphenyl)amino)-1,5,6,7-tetrahydro-4H-pyrrolo[3,2-c]pyridin-4-one]",> 1000 nM,> 1000 nM,
"COc1c(Cl)cccc1Nc1c(-c2ccncc2OC[C@@H]2CCCN2S(C)(=O)=O)[nH]c2c1C(=O)NCC2 [Compound 142a, (S)-3-((3-chloro-2-methoxyphenyl)amino)-2-(3-((1-(methylsulfonyl)pyrrolidin-2-yl)methoxy)pyridin-4-yl)-1,5,6,7-tetrahydro-4H-pyrrolo[3,2-c]pyridin-4-one]",100 to 1000 nM,100 to 1000 nM,
COc1c(F)cccc1Nc1c(-c2ccncc2C#CC(C)(C)OC)[nH]c2c1C(=O)NCC2 [compound 149],> 1000 nM,100 to 1000 nM,
"C=CC(=O)N1CCC[C@H]1COc1cnccc1-c1[nH]c2c(c1Nc1cccc(Cl)c1CC)C(=O)NCC2 [compound 216, 3-[(3-chloro-2-ethylphenyl)amino]-2-(3-{[(2S)-1-(prop-2-enoyl)pyrrolidin-2-yl]methoxy}pyridin-4-yl)-1H,5H,6H,7H-pyrrolo[3,2-c]pyridin-4-one]",100 to 1000 nM,< 100 nM,< 100 nM
"C=CC(=O)N1CC(C)(C)C[C@@H]1C#Cc1cnccc1-c1[nH]c2c(c1Nc1cccc(Cl)c1OC)C(=O)NCC2 [compound 235, 3-[(3-chloro-2-methoxyphenyl)amino]-2-(3-{2-[(2R)-4,4-dimethyl-1-(prop-2-enoyl)pyrrolidin-2-yl]ethynyl}pyridin-4-yl)-1H,5H,6H,7H-pyrrolo[3,2-c]pyridin-4-one]",< 100 nM,< 100 nM,< 100 nM
"C=CC(=O)N1[C@H](C)CC[C@@H]1C#Cc1cnccc1-c1[nH]c2c(c1Nc1cccc(Cl)c1OC)C(=O)NCC2 [compound 238, 3-[(3-chloro-2-methoxyphenyl)amino]-2-(3-{2-[(2R,5R)-5-methyl-1-(prop-2-enoyl)pyrrolidin-2-yl]ethynyl}pyridin-4-yl)-1H,5H,6H,7H-pyrrolo[3,2-c]pyridin-4-one]",100 to 1000 nM,< 100 nM,< 100 nM
"C=CC(=O)N1[C@H](C)CC[C@H]1C#Cc1cnccc1-c1[nH]c2c(c1Nc1cccc(Cl)c1OC)C(=O)NCC2 [compound 239, 3-[(3-chloro-2-methoxyphenyl)amino]-2-(3-{2-[(2S,5R)-5-methyl-1-(prop-2-enoyl)pyrrolidin-2-yl]ethynyl}pyridin-4-yl)-1H,5H,6H,7H-pyrrolo[3,2-c]pyridin-4-one]",< 100 nM,< 100 nM,< 100 nM
"C=CC(=O)N1[C@H](C)CC[C@@H]1C#Cc1cnccc1-c1[nH]c2c(c1Nc1cccc(F)c1OC)C(=O)NCC2 [compound 256, 3-[(3-fluoro-2-methoxyphenyl)amino]-2-(3-{2-[(2R,5R)-5-methyl-1-(prop-2-enoyl)pyrrolidin-2-yl]ethynyl}pyridin-4-yl)-1H,5H,6H,7H-pyrrolo[3,2-c]pyridin-4-one]",100 to 1000 nM,< 100 nM,< 100 nM
"C=CC(=O)NC1(C#Cc2cnccc2-c2[nH]c3c(c2Nc2cccc(F)c2OC)C(=O)NCC3)CCC1 [compound 262, N-{1-[2-(4-{3-[(3-fluoro-2-methoxyphenyl)amino]-4-oxo-1H,5H,6H,7H-pyrrolo[3,2-c]pyridin-2-yl}pyridin-3-yl)ethynyl]cyclobutyl}prop-2-enamide]",100 to 1000 nM,< 100 nM,< 100 nM
"CC#CC(=O)N1CCOC[C@@H]1COc1cnccc1-c1[nH]c2c(c1Nc1cccc(F)c1OC)C(=O)NCC2 [compound 293, 2-(3-{[(3R)-4-(but-2-ynoyl)morpholin-3-yl]methoxy}pyridin-4-yl)-3-[(3-fluoro-2-methoxyphenyl)amino]-1H,5H,6H,7H-pyrrolo[3,2-c]pyridin-4-one]",> 1000 nM,> 1000 nM,> 1000 nM
"COc1c(F)cccc1Nc1c(-c2ccncc2C#C[C@H]2CCCN2C(=O)/C=C/CN(C)C)[nH]c2c1C(=O)NCC2 [compound 303, 2-(3-{2-[(2R)-1-[(2E)-4-(dimethylamino)but-2-enoyl]pyrrolidin-2-yl]ethynyl}pyridin-4-yl)-3-[(3-fluoro-2-methoxyphenyl)amino]-1H,5H,6H,7H-pyrrolo[3,2-c]pyridin-4-one]",> 1000 nM,100 to 1000 nM,100 to 1000 nM
"C=CC(=O)N1CCC[C@]1(C)C#Cc1cnccc1-c1[nH]c2c(c1Nc1cccc(F)c1C)C(=O)NCC2 [compound 304, 3-[(3-fluoro-2-methylphenyl)amino]-2-(3-{2-[(2R)-2-methyl-1-(prop-2-enoyl)pyrrolidin-2-yl]ethynyl}pyridin-4-yl)-1H,5H,6H,7H-pyrrolo[3,2-c]pyridin-4-one]",< 100 nM,< 100 nM,< 100 nM
"C=CC(=O)N1CC[C@@H]1[C@H](C)Oc1cnccc1-c1[nH]c2c(c1Nc1cccc(F)c1OC)C(=O)NCC2 [compound 310, 3-[(3-fluoro-2-methoxyphenyl)amino]-2-{3-[(1S)-1-[(2R)-1-(prop-2-enoyl)azetidin-2-yl]ethoxy]pyridin-4-yl}-1H,5H,6H,7H-pyrrolo[3,2-c]pyridin-4-one]",> 1000 nM,100 to 1000 nM,100 to 1000 nM
CC#CC(=O)N1CC[C@H]1C#Cc1cnccc1-c1[nH]c2c(c1Nc1cccc(Cl)c1OC)C(=O)NCC2 [compound 371],100 to 1000 nM,< 100 nM,< 100 nM
CC#CC(=O)N1CC[C@@H]1C#Cc1cnccc1-c1[nH]c2c(c1Nc1cccc(Cl)c1OC)C(=O)NCC2 [compound 372],100 to 1000 nM,< 100 nM,< 100 nM
C=CC(=O)NC1(C#Cc2cnccc2-c2[nH]c3c(c2Nc2cccc(F)c2OC)C(=O)NCC3)CC2(COC2)C1 [compound 402],> 1000 nM,100 to 1000 nM,100 to 1000 nM
C=CC(=O)NC1(C#Cc2cnccc2-c2[nH]c3c(c2Nc2cccc(Cl)c2OC)C(=O)NCC3)CN(C)C1 [compound 410],> 1000 nM,< 100 nM,100 to 1000 nM
C=CC(=O)NC(C)(C)C#Cc1cnccc1-c1[nH]c2c(c1Nc1cc(F)cc(Cl)c1OC)C(=O)NCC2 [compound 428],100 to 1000 nM,< 100 nM,< 100 nM
COc1c(Cl)cc(F)cc1Nc1c(-c2ccncc2C#C[C@@]2(C)CCCN2C(=O)C#CCN(C)C)[nH]c2c1C(=O)NCC2 [compound 432],100 to 1000 nM,< 100 nM,< 100 nM
COc1c(Cl)cc(F)cc1Nc1c(-c2ccncc2C#CC23CC(CN2C(=O)/C=C/CN(C)C)C3)[nH]c2c1C(=O)NCC2 [compound 438],100 to 1000 nM,< 100 nM,< 100 nM
C=CC(=O)NC1(C#Cc2cnccc2-c2[nH]c3c(c2Nc2cccc(Cl)c2OC)C(=O)NCC3)CNC1 [compound 455],> 1000 nM,> 1000 nM,> 1000 nM
COc1c(F)cccc1Nc1c(-c2ccncc2C#C[C@@]2(C)COCCN2C(=O)/C=C/CN(C)C)[nH]c2c1C(=O)NCC2 [compound 459],> 1000 nM,< 100 nM,< 100 nM
C=CC(=O)N1CCOC[C@]1(C)C#Cc1cnccc1-c1[nH]c2c(c1Nc1cccc(F)c1OC)C(=O)NCC2 [compound 460],100 to 1000 nM,< 100 nM,< 100 nM
